# Measurements from ChEMBL document CHEMBL5576158, “Recent insights of PROTAC developments in inflammation-mediated and autoimmune targets: a critical review” (RSC Med Chem, 2024).
# How the values were obtained:
# [1] = target: Protein cereblon/Histone acetyltransferase KAT2A (Homo sapiens) (UniProt Q92830+Q96SW2); experiment: PROTAC activity at GCN5/CRBN in human THP-1 cells assessed as induction of […] degradation by measuring maximal efficacy at 30 nM measured for 10 mins by Western blot analysis relative to control; assay type: cell-based
# Chain of Protein cereblon/Histone acetyltransferase KAT2A (Homo sapiens) (Q92830 2-837 limits assumed): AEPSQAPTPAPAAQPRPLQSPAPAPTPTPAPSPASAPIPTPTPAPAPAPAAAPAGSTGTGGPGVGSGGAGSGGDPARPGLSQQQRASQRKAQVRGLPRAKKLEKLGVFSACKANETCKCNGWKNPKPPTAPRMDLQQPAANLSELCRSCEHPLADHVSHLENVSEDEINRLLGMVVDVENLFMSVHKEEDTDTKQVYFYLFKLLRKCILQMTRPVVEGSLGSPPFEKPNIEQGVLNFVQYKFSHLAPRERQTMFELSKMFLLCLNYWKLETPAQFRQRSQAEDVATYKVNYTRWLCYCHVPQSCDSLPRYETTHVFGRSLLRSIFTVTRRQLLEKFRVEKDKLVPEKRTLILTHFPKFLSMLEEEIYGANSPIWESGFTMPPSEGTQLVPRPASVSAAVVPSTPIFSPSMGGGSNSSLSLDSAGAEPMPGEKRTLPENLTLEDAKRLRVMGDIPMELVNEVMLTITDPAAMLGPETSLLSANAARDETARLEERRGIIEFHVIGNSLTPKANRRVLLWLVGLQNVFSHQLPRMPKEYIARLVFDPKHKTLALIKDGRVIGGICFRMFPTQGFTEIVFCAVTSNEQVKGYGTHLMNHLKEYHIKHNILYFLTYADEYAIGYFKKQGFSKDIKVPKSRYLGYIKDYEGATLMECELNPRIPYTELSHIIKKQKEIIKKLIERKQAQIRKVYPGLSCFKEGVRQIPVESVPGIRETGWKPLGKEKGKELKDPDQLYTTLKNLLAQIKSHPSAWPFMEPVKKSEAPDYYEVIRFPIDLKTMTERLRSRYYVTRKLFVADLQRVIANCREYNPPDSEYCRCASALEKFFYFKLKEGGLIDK
# Chain of Protein cereblon/Histone acetyltransferase KAT2A (Homo sapiens) (Q96SW2 whole entry partner): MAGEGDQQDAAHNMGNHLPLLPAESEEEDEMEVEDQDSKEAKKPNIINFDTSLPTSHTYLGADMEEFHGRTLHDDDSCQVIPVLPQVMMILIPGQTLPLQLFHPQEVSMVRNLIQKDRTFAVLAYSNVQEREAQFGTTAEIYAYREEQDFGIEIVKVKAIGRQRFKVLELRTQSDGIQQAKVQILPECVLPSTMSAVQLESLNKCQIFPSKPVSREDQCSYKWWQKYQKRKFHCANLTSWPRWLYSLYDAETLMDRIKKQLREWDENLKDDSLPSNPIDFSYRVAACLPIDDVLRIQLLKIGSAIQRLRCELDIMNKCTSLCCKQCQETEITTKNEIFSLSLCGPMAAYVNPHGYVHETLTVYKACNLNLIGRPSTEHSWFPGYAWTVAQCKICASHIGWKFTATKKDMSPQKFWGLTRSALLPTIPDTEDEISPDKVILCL
# [2] = target: Protein cereblon/Histone acetyltransferase KAT2B (Homo sapiens) (UniProt Q92831+Q96SW2); experiment: PROTAC activity at PCAF/CRBN in human THP-1 cells assessed as induction of PCAF degradation by measuring maximal efficacy at 30 nM measured for 10 mins by Western blot analysis relative to control; assay type: cell-based
# Chain of Protein cereblon/Histone acetyltransferase KAT2B (Homo sapiens) (Q92831 whole entry, looked up): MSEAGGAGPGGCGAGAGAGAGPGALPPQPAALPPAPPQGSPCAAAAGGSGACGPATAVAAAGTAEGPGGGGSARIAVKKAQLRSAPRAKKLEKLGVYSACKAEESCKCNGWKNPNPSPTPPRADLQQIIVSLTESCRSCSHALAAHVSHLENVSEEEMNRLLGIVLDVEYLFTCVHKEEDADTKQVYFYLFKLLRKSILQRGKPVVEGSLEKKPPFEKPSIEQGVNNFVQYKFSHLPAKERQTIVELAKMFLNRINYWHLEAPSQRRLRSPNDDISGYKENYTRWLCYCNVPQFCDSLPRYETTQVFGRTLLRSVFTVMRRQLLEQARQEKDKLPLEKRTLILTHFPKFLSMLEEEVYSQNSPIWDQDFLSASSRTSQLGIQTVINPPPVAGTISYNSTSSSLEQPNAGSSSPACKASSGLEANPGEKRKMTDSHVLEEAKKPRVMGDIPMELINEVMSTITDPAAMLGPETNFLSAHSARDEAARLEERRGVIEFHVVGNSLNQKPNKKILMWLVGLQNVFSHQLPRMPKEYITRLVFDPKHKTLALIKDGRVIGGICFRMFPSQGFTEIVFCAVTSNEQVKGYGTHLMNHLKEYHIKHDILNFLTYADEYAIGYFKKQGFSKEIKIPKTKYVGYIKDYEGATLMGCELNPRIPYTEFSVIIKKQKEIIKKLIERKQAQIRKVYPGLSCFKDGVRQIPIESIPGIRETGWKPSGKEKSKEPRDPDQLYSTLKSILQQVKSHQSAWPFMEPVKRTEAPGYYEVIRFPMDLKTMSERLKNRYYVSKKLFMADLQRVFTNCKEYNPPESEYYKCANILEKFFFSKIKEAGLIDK
# Chain of Protein cereblon/Histone acetyltransferase KAT2B (Homo sapiens) (Q96SW2 whole entry, looked up): as the sequence (Q96SW2 whole entry partner) above
# [3] = target: von Hippel-Lindau disease tumor suppressor/Receptor-interacting serine/threonine-protein kinase 2 (Homo sapiens) (UniProt O43353+P40337); experiment: PROTAC activity at VHL/RIPK2 in human THP-1 cells assessed as RIPK2 degradation by measuring maximal efficacy at 10 nM measured after 16 hrs by Western blot analysis relative to control; assay type: cell-based
# [4] = target: Receptor-interacting serine/threonine-protein kinase 2 (Homo sapiens) (UniProt O43353); experiment: PROTAC activity at IAP/RIPK2 in human THP-1 cells assessed as […] by Western blot analysis
# Chain of Receptor-interacting serine/threonine-protein kinase 2 (Homo sapiens) (O43353 whole entry, looked up): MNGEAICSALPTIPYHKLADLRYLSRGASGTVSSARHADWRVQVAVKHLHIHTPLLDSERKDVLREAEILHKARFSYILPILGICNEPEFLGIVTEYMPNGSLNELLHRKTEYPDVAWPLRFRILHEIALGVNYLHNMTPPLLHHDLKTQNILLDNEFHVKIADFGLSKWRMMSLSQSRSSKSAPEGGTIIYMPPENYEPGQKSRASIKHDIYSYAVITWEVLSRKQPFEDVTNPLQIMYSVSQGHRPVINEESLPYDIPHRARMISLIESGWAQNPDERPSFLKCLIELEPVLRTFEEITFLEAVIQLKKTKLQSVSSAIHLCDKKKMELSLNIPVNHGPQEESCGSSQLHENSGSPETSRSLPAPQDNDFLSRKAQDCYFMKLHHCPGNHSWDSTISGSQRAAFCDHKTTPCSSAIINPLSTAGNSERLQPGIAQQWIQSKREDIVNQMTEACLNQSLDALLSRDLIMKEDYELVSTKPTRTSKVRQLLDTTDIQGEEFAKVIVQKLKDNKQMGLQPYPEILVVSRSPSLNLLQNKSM
# [5] = target: Protein cereblon/Macrophage migration inhibitory factor (Homo sapiens) (UniProt P14174+Q96SW2); experiment: PROTAC activity at E3 ubiquitin ligase/MIF in human A549 cells assessed as induction of MIF degradation by Western blot analysis; assay type: cell-based
# Chain of Protein cereblon/Macrophage migration inhibitory factor (Homo sapiens) (Q96SW2 whole entry partner, one chain of several): as the sequence (Q96SW2 whole entry partner) above
# [6] = target: T1, Macrophage migration inhibitory factor (Homo sapiens, UniProt P14174); experiment: Binding affinity to MIF in human A549 cells assessed as inhibition constant; assay type: cell-based
# T1 sequence (P14174 whole entry): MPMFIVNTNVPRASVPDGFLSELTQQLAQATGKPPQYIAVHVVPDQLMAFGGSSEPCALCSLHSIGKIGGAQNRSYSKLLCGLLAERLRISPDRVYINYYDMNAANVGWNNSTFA
# [7] = target: Protein cereblon/Interleukin-1 receptor-associated kinase 4 (Homo sapiens, UniProt Q9NWZ3+Q96SW2); experiment: PROTAC activity at CRBN/IRAK4 in human THP-1 cells assessed as induction of IRAK4 degradation by Immuno-blotting analysis; assay type: cell-based
# Chain of Protein cereblon/Interleukin-1 receptor-associated kinase 4 (Q9NWZ3 whole entry): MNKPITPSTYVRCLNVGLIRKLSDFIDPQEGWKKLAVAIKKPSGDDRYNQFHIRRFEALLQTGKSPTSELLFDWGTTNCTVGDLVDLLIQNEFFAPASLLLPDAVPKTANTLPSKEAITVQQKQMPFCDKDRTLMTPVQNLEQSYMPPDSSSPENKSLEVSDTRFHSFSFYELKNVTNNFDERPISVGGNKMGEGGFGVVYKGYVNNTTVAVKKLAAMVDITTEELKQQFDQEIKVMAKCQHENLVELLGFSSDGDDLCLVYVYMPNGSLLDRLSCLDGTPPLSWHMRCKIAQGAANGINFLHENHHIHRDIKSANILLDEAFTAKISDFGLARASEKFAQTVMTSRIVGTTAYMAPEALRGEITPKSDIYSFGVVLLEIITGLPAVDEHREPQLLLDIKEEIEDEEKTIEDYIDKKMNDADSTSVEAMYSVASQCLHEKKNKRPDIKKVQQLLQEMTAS
# Chain of Protein cereblon/Interleukin-1 receptor-associated kinase 4 (Q96SW2 whole entry): as the sequence (Q96SW2 whole entry partner) above
# [8] = target: von Hippel-Lindau disease tumor suppressor/Tyrosine-protein kinase BTK (Homo sapiens, UniProt Q06187+P40337, C481S); experiment: PROTAC activity at VHL/BTK C481S mutant in human THP-1 cells assessed as induction of BTK degradation incubated for 24 hrs by immunoblotting analysis; assay type: cell-based
# [9] = target: Protein cereblon/Histone deacetylase 8 (Homo sapiens, UniProt Q9BY41+Q96SW2); experiment: PROTAC activity at CRBN/HDAC8 in human Jurkat T cells assessed as induction of degradation of HDAC8 by Western blot analysis; assay type: cell-based
# [10] = target: T2, von Hippel-Lindau disease tumor suppressor/Interleukin-1 receptor-associated kinase 3 (Homo sapiens, UniProt Q9Y616+P40337); experiment: PROTAC activity at IRAK3/VHL E3 ligase in human THP-1 cells assessed as induction of IRAK3 degradation by measuring maximal efficacy incubated for 24 hrs by Western blot analysis; assay type: cell-based
# [11] = target: T2, von Hippel-Lindau disease tumor suppressor/Interleukin-1 receptor-associated kinase 3; experiment: PROTAC activity at IRAK3/VHL E3 ligase in human THP-1 cells assessed as induction of IRAK3 degradation by Immuno-blot analysis; assay type: cell-based
# [12] = target: Protein cereblon/Protein deacetylase HDAC6 (Homo sapiens, UniProt Q9UBN7+Q96SW2); experiment: PROTAC activity at CRBN/HDAC6 in human MM1.S cells assessed as HDAC6 degradation incubated for 18 hrs by immunoblot analysis; assay type: cell-based
# [13] = target: T3, Tyrosine-protein kinase ITK/TSK (Homo sapiens, UniProt Q08881); experiment: Inhibition of ITK (unknown origin)
# T3 sequence (Q08881 whole entry): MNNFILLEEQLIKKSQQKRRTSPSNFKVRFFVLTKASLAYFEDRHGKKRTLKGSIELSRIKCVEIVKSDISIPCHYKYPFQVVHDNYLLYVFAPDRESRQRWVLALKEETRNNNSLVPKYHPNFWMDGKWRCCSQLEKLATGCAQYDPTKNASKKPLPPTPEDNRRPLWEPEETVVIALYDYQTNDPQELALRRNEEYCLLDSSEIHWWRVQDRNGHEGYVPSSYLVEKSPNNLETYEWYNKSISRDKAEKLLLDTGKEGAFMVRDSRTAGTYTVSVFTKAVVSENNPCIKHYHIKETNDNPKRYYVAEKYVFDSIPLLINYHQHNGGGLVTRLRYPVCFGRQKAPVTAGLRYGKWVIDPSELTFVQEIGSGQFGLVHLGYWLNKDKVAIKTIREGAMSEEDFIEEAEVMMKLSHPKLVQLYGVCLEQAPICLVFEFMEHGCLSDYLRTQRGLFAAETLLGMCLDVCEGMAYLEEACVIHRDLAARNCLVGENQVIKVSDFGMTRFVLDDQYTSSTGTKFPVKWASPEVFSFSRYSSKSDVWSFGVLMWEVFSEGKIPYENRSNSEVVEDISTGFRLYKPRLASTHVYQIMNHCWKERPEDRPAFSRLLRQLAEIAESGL
# [14] = target: T4, Tyrosine-protein kinase ITK/TSK (Homo sapiens) (UniProt Q08881); experiment: Degradation of ITK (unknown origin) at 1 uM relative to control
# T4 sequence (whole entry): T3 sequence (Q08881 whole entry)
# [15] = Cytotoxicity against mouse RAW264.7 cells assessed as reduction in cell growth; assay type: toxicity, cell-based
# [16] = target: Protein cereblon/Indoleamine 2,3-dioxygenase 1 (Homo sapiens) (UniProt P14902+Q96SW2); experiment: PROTAC activity against CRBN/IDO1 in human HeLa cells assessed as induction of IDO1 degradation at 2 uM incubated for 24 hrs by Western blot analysis relative to control; assay type: cell-based
compound,measurement,setting,value
CN1C[C@H](Nc2cnn(C)c(=O)c2Br)C[C@H](c2ccc(C(=O)N(C)CCCN(C)c3ccc(CCCOc4cccc5c4C(=O)N(C4CCC(=O)NC4=O)C5=O)cc3)cc2)C1 (some centres undefined),Emax,[1],80%
same,Emax,[2],80%
Cc1ncsc1-c1ccc(CNC(=O)[C@@H]2C[C@@H](O)CN2C(=O)[C@@H](NC(=O)COCCOCCOCCOCCOc2cc3nccc(Nc4ccc5scnc5c4)c3cc2S(=O)(=O)C(C)(C)C)C(C)(C)C)cc1,Emax,[3],95%
CN[C@H](C)C(=O)N[C@@H](C(=O)N1Cc2cc(OCCOCCOCCOCCOc3cc4nccc(Nc5ccc6scnc6c5)c4cc3S(=O)(=O)C(C)(C)C)ccc2C[C@H]1C(=O)N[C@H]1CCCc2ccccc21)C(C)(C)C,pDC50,[4],9.4
O=C1CCC(N2C(=O)c3cccc(NCCCCC(=O)Nc4ccc(N5Cc6ccc(O)cc6OC5=O)cc4)c3C2=O)C(=O)N1 (centres undefined),Emax,[5],21%
same,Ki,[6],86 nM
O=C1CCC(N2C(=O)c3cccc(NCCCCCCCCCC(=O)Nc4ccc(N5Cc6ccc(O)cc6OC5=O)cc4)c3C2=O)C(=O)N1 (centres undefined),Emax,[5],64%
CC(C)Nc1cc(C(=O)N[C@H]2CC[C@@H](C(=O)NCCCCCNC(=O)COc3cccc4c3C(=O)N(C3CCC(=O)NC3=O)C4=O)CC2)nc(-n2ccc3cc(C#N)cnc32)c1 (some centres undefined),DC50,[7],190 nM
CC(C)Nc1cc(C(=O)N[C@H]2CC[C@@H](C(=O)NCCOCCNC(=O)COc3cccc4c3C(=O)N(C3CCC(=O)NC3=O)C4=O)CC2)nc(-n2ccc3cc(C#N)cnc32)c1 (some centres undefined),DC50,[7],405 nM
CN[C@@H](C)C(=O)N[C@H](C(=O)N1C[C@@H](NC(=O)OCCOCCOCCOCCN2CCN(CCCC(=O)N3CCC[C@@H](n4nc(-c5ccc(Oc6ccccc6)cc5)c5c(N)ncnc54)C3)CC2)C[C@H]1C(=O)N[C@@H]1CCCc2ccccc21)C1CCCCC1,DC50,[8],200 nM
CN[C@@H](C)C(=O)N[C@H](C(=O)N1CCC[C@H]1c1nc(C(=O)c2ccc(F)cc2)cs1)C1CCN(C(=O)c2cnc(N3CCN(CCOc4cc5ncnc(Nc6n[nH]c(C)c6C)c5cc4S(=O)(=O)C(C)(C)C)CC3)nc2)CC1,pDC50,[4],7.9
O=C1CCC(N2C(=O)c3ccc(NCCCCCCCCCCCNC(=O)c4cccc(SCc5cn(-c6cccc(C(=O)NO)c6)nn5)c4)cc3C2=O)C(=O)N1 (centres undefined),DC50,[9],702 nM
Cc1ncsc1-c1ccc([C@H](C)NC(=O)[C@@H]2C[C@@H](O)CN2C(=O)[C@@H](NC(=O)[C@H]2CC[C@H](C(=O)N3CCC(n4cc(-c5cnc(N)c(O[C@@H](C)c6c(Cl)ccc(F)c6Cl)c5)cn4)CC3)CC2)C(C)(C)C)cc1,Emax,[10],95%
same,DC50,[11],94 nM
O=C1CCC(N2C(=O)c3cccc(NCCCCCCC(=O)Nc4ccc(N5Cc6ccc(O)cc6OC5=O)cc4)c3C2=O)C(=O)N1 (centres undefined),Emax,[5],55%
CCCCN(Cc1ccc(C(=O)O)cc1)C(=O)Nc1ccc(OCCCCCCCn2cc(CNCc3ccc(-c4cccc5c4CN(C4CCC(=O)NC4=O)C5=O)cc3)nn2)cc1 (centres undefined),DC50,[12],1.9 nM
COc1cc(C)c(Sc2cnc(NC(=O)c3ccc(N4CCN(CCCCCCNC(=O)COc5cccc6c5C(=O)N(C5CCC(=O)NC5=O)C6=O)CC4)cc3)s2)cc1C(=O)N1CCN(C(C)=O)CC1 (centres undefined),pDC50,[4],9.4
same,IC50,[13],17.6 nM
same,degradation,[14],> 90%
CN1C(=O)CCC(N2C(=O)c3cccc(NCCCCCCCC(=O)Nc4ccc(N5Cc6ccc(O)cc6OC5=O)cc4)c3C2=O)C1=O (centres undefined),Emax,[5],55%
C=C1CC[C@H]2[C@@H](/C=C(\C)C(=O)[C@@]3(O)C[C@H](C)[C@H](O)[C@@H]3[C@H]1OCc1cn(CCOCCOCCOCCNc3cccc4c3C(=O)N(C3CCC(=O)NC3=O)C4=O)nn1)C2(C)C (some centres undefined),IC50,[15],8340 nM
O=C1CCC(N2C(=O)c3cccc(NCCCCCCCC(=O)Nc4ccc(N5Cc6ccc(O)cc6OC5=O)cc4)c3C2=O)C(=O)N1 (centres undefined),Emax,[5],91%
O=C1CCC(N2C(=O)c3cccc(NCCOCCOCCOCCOCCOCCOCCOCCNCCNc4nonc4/C(=N/O)Nc4ccc(F)c(Br)c4)c3C2=O)C(=O)N1 (centres undefined),Emax,[16],93%
O=C1CCC(N2C(=O)c3cccc(NCCCC(=O)Nc4ccc(N5Cc6ccc(O)cc6OC5=O)cc4)c3C2=O)C(=O)N1 (centres undefined),Ki,[6],55 nM
